According to patent US11873313B1, “Development of novel tetra nuclear distorted square anti-prism Dy (III) imine complex for pharmaceutical and industrial applications” (KING FAISAL UNIVERSITY, priority 2023, dated 2024):
≈ marks a conversion by molar mass, not a printed value. Values belong to the molecule of their own block, whether it stands above or below them.

Key:
breast cancer cell line = test: Anti-oxidant activity; details: against the breast cancer cell line (so in the source)
E-coli bacteria = test: Anti-microbial activity (antibacterial, inhibition zone and MIC); assay type: cell-based
colon cancer cell line = test: Anti-cancer activity against colon cancer cell line; assay type: cell-based; details: read-out: IC50 (anticancer activity)

- IC50 (Antioxidant activity) (breast cancer cell line): 55.2 µg/mL (≈ 313 µM)
Structure (SMILES): O=C1O[C@H]([C@@H](O)CO)C(O)=C1O [1-ascorbic acid, reference compound]

- MIC (E-coli bacteria; Escherichia coli): 2.25 µg/mL (≈ 6.23 µM)
Structure (SMILES): CC1COc2c(N3CCN(C)CC3)c(F)cc3c(=O)c(C(=O)O)cn1c23 (stereo not shown) [Ofloxacin, reference compound]
- inhibition zone (E-coli bacteria): 30 mm

- IC50 (colon cancer cell line): 4.7 µg/mL (≈ 5.8 µM)
Structure (SMILES): CC[C@]1(O)C[C@@H]2CN(CCc3c([nH]c4ccccc34)[C@@](C(=O)OC)(c3cc4c(cc3OC)N(C)[C@H]3[C@@](O)(C(=O)OC)[C@H](OC(C)=O)[C@]5(CC)C=CCN6CC[C@]43[C@@H]65)C2)C1 [vinblastine, reference compound]
